The text below walks through data of ChEMBL document CHEMBL4732198, “HDAC7 Inhibition by Phenacetyl and Phenylbenzoyl Hydroxamates” (J Med Chem, 2021).

Calls of active or inactive are those of the source. Some results are limits rather than exact numbers.

For one series, the target named is T1, Histone deacetylase 7 (Homo sapiens, UniProt Q8WUI4).
T1 sequence (Q8WUI4 whole entry): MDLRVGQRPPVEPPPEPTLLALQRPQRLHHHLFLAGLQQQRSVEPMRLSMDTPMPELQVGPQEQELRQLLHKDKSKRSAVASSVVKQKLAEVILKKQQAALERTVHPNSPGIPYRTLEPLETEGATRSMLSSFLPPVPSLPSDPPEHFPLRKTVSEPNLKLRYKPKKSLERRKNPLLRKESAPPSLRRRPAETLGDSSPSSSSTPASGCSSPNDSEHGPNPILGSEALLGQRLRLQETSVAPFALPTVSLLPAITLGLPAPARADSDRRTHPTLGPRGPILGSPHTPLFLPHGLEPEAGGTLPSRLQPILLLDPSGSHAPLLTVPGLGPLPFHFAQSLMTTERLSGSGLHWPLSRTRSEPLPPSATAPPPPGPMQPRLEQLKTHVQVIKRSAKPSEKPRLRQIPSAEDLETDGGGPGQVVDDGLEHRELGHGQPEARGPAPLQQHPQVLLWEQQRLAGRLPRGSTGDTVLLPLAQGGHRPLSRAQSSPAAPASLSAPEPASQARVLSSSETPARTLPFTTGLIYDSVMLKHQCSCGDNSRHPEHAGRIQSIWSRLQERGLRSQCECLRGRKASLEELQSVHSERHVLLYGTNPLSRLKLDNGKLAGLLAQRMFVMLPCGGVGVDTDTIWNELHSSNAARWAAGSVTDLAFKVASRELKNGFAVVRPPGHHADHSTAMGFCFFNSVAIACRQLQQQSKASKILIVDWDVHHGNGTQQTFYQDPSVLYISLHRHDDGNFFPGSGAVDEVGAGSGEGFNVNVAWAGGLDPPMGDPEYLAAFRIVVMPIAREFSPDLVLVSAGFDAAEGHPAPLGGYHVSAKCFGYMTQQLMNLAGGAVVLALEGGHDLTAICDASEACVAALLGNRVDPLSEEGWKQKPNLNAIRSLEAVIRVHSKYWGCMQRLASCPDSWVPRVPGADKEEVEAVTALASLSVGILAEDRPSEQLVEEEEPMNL

Another series has as its target Histone deacetylase 1 (Homo sapiens, UniProt Q13547). As to the kind of experiment: Inhibition of recombinant human HDAC1 using Ac-LGK(Ac)-AMC as substrate preincubated for 30 mins followed by substrate addition and measured after 90 mins by fluorescence based assay.
The subject of series [1] is Macrophage. Put plainly: Antiinflammatory activity in human monocytes-derived macrophages assessed as inhibition of LPS-induced GM-CSF secretion at 30 uM pretreated for 1 hr followed by LPS stimulation and measured after 24 hrs by homogenous time-resolved fluorescence assay. It counts as functional, cell-based. The note with it: time 25.0 hrs.
The test system of series [2] is Macrophage. Put plainly: Antiinflammatory activity in human monocytes-derived macrophages assessed as inhibition of LPS-induced IL-6 secretion at 30 uM pretreated for 1 hr followed by LPS stimulation and measured after 24 hrs by homogenous time-resolved fluorescence assay. It counts as functional, cell-based. As to conditions: time 25.0 hrs.
Series [3] can be described thus: Solubility of compound in PEG400 in PBS at 10 mg/ml. The format is physicochemical.
The subject of series [4] is Macrophage. Put plainly: Antiinflammatory activity in human monocytes-derived macrophages assessed as inhibition of LPS-induced IL-1alpha secretion at 30 uM pretreated for 1 hr followed by LPS stimulation and measured after 24 hrs by homogenous time-resolved fluorescence assay. It counts as functional, cell-based. The note with it: time 25.0 hrs.
The target in series [5] is T2, Protein deacetylase HDAC6 (Homo sapiens, UniProt Q9UBN7).
T2 sequence (Q9UBN7 whole entry): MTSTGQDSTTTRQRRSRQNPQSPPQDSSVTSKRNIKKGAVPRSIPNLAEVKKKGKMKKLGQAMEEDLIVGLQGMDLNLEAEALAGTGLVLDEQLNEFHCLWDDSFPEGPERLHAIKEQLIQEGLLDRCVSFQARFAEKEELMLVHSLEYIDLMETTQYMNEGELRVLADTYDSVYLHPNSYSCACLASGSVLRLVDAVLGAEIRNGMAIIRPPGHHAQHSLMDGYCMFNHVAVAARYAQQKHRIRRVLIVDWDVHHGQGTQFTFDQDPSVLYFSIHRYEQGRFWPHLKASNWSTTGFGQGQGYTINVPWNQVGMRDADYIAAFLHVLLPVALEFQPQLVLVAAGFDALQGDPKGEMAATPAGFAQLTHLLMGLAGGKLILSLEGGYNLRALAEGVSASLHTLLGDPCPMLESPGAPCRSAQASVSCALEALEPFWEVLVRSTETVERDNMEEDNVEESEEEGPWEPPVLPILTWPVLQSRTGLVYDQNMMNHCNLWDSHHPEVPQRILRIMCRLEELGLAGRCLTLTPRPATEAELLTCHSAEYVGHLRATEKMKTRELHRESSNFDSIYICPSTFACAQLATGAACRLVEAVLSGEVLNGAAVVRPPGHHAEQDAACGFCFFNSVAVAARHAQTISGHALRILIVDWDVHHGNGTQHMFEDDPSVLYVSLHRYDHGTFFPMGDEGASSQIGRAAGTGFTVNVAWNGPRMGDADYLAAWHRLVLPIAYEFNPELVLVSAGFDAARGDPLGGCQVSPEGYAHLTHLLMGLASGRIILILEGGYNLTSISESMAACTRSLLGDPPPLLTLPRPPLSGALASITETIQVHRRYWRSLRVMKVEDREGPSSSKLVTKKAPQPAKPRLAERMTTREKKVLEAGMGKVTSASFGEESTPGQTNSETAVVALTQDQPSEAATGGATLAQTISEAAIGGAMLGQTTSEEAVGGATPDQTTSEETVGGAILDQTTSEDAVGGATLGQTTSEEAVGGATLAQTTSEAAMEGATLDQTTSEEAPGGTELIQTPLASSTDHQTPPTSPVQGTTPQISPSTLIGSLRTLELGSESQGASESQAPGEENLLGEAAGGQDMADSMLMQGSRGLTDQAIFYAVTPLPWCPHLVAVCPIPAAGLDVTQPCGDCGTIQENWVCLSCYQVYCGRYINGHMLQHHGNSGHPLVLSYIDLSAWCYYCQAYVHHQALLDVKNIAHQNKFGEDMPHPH
Put plainly: Inhibition of recombinant human HDAC6 using Boc-Lys(Ac)-AMC as substrate pre-incubated for 15 mins followed by substrate addition and measured after 60 mins by fluorescence based assay.

Series [6] relates to Macrophage. Put plainly: Antiinflammatory activity in human monocytes-derived macrophages assessed as inhibition of LPS-induced IL-23 secretion at 30 uM pretreated for 1 hr followed by LPS stimulation and measured after 24 hrs by homogenous time-resolved fluorescence assay. As to conditions: time 25.0 hrs. The format is functional, cell-based.
Series [7] in a line: Metabolic stability in Sprague-Dawley rat liver microsomes assessed as half life at 5 uM preincubated for 5 mins followed by NADPH addition and measured after 60 mins by LCMS analysis. The format is ADME, Microsome. As to conditions: time 65 min. On the technique in general: Liver microsomes are a subcellular fraction often used to study metabolism.
Series [8] deals with T3, Class 1 histone deacetylase (Homo sapiens, UniProt Q13547+O15379+Q92769+Q9BY41). Put plainly: Inhibition of Class 1 histone deacetylase in human THP-1 cells using Ac-LGK(Ac)-AMC as substrate incubated for 3 hrs followed by 50 uM SAHA addition and measured after 1 hr by fluorescence based assay. The format is cell-based.
The next series concerns the target Histone deacetylase 4 (Homo sapiens, UniProt P56524). As to the kind of experiment: Inhibition of recombinant human HDAC4 using Ac-LGK(TFA)-AMC as substrate pre-incubated for 15 mins followed by substrate addition and measured after 60 mins by fluorescence based assay.
Series [9] has as its target T3, Class 1 histone deacetylase. Put plainly: Inhibition of Class 1 histone deacetylase in human THP-1 cells assessed as accumulation of Histone H4 acetylation levels at 1 to 10 uM incubated for 3 hrs by western blot analysis. The note with it: dose 1-10 µM. The format is cell-based.
A further series concerns the target Histone deacetylase 9 (Homo sapiens, UniProt Q9UKV0). Put plainly: Inhibition of recombinant human HDAC9 using Ac-LGK(TFA)-AMC as substrate preincubated for 15 mins followed by substrate addition and measured after 60 mins by fluorescence based assay.
Series [10] in a line: Inhibition of Class 2a histone deacetylase in human THP-1 cells using Ac-LGK(TFA)-AMC as substrate incubated for 3 hrs followed by 50 uM SAHA addition and measured after 1 hr by fluorescence based assay. It counts as cell-based.
The subject of series [11] is Macrophage. As to the kind of experiment: Antiinflammatory activity in human monocytes-derived macrophages assessed as inhibition of LPS-induced CCL2 secretion at 30 uM pretreated for 1 hr followed by LPS stimulation and measured after 24 hrs by homogenous time-resolved fluorescence assay. The format is functional, cell-based. The note with it: time 25.0 hrs.
The next series concerns the target T4, Histone deacetylase 8 (Homo sapiens, UniProt Q9BY41).
T4 sequence (Q9BY41 whole entry): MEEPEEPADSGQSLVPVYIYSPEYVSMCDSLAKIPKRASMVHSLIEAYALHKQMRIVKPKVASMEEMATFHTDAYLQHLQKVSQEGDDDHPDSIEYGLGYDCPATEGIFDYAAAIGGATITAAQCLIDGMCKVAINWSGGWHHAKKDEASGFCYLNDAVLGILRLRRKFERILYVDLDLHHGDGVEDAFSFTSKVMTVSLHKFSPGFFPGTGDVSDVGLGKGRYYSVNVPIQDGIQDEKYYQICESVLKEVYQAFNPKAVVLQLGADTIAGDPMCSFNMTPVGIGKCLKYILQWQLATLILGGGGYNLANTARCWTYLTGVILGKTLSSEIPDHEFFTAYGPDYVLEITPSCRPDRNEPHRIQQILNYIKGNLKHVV
Put plainly: Inhibition of recombinant human HDAC8 using Ac-LGK(TFA)-AMC as substrate preincubated for 30 mins followed by substrate addition and measured after 90 mins by fluorescence based assay.

For series [12], the system named is Macrophage. As to the kind of experiment: Antiinflammatory activity in human monocytes-derived macrophages assessed as inhibition of LPS-induced IL-12p40 secretion at 30 uM pretreated for 1 hr followed by LPS stimulation and measured after 24 hrs by homogenous time-resolved fluorescence assay. The note with it: time 25.0 hrs. The format is functional, cell-based.

Chain of Histone deacetylase 9 (Q9UKV0 whole entry): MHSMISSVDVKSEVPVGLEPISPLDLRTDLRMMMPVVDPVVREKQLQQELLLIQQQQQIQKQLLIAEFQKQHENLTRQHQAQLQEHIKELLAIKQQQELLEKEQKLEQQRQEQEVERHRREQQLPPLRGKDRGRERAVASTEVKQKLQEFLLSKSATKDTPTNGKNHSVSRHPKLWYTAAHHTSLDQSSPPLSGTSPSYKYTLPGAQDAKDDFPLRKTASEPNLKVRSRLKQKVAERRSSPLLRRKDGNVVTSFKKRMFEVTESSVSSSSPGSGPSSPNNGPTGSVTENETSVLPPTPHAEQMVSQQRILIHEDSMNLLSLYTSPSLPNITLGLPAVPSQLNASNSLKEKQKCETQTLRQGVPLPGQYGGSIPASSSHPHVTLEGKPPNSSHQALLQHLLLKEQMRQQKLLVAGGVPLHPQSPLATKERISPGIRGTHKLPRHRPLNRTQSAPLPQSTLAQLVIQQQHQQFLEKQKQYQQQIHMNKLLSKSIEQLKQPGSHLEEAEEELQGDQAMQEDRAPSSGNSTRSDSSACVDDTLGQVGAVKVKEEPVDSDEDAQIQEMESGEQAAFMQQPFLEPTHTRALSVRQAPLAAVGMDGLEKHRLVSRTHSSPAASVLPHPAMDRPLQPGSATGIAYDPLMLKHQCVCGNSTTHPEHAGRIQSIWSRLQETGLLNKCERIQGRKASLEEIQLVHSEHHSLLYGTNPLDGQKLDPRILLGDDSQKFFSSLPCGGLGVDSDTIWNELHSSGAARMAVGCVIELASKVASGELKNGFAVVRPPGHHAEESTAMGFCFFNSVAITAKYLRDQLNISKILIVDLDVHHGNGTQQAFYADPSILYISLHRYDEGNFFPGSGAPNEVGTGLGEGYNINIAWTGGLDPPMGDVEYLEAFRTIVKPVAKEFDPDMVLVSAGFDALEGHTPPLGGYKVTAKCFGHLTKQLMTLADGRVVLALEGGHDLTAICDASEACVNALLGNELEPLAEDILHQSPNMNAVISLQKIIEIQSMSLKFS
Chain of Histone deacetylase 1 (Q13547 whole entry): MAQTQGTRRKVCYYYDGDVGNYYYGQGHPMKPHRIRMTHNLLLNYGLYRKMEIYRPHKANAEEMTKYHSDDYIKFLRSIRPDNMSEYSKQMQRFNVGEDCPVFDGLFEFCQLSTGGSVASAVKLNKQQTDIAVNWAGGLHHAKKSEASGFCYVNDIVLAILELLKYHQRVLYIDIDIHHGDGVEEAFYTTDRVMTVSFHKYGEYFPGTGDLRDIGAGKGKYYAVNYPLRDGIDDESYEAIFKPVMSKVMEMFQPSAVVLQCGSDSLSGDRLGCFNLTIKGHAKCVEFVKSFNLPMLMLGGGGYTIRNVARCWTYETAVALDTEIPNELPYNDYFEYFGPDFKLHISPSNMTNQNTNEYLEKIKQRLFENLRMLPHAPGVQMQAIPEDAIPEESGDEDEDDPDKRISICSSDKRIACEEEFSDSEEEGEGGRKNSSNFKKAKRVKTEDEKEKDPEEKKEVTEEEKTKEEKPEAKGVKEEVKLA
Chain of Histone deacetylase 4 (P56524 whole entry): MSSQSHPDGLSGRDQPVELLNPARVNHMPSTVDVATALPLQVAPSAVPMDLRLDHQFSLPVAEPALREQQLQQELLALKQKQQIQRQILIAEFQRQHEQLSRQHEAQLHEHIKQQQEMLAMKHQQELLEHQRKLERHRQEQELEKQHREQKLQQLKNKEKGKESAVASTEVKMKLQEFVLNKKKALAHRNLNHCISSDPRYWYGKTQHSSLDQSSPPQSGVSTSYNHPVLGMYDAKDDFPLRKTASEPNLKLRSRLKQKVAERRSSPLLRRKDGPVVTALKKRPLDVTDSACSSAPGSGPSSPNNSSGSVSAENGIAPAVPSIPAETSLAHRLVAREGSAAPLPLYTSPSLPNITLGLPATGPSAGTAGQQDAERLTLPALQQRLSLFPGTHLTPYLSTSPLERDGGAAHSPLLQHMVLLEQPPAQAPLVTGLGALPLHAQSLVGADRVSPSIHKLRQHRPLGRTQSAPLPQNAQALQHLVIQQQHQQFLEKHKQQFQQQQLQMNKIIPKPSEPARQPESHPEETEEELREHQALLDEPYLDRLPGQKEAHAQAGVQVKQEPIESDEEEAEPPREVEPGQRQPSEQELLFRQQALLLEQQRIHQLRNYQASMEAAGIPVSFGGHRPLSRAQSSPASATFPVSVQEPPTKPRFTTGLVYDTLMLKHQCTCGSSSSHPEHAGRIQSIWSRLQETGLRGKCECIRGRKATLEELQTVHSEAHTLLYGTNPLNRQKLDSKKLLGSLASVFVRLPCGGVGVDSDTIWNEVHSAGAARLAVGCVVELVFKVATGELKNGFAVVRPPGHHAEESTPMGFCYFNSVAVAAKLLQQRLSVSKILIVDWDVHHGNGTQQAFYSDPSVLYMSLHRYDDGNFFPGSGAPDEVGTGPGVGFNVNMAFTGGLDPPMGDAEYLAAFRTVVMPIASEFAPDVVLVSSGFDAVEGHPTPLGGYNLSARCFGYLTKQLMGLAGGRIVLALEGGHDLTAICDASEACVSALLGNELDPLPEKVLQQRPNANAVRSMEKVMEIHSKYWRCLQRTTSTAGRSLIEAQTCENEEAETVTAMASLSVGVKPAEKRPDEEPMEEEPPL
Description for Histone deacetylase 7: Inhibition of recombinant human HDAC7 using Ac-LGK(TFA)-AMC as substrate pre-incubated for 15 mins followed by substrate addition and measured after 60 mins by fluorescence based assay

For `O=C(O)c1cccc(C(CCCCN2C(=O)c3ccccc3C2=O)C(=O)NO)c1` (configuration not stated), the IC50 against Histone deacetylase 7 and at Histone deacetylase 1 was 1.4 µM each time.
`O=C(NO)c1ccc(CN2C(=O)c3cccnc3C2=O)cc1-c1ccccc1`: at Histone deacetylase 1, the IC50 was over 100 µM.
`O=C(NO)C(OCCCN1C(=O)c2ccccc2C1=O)c1ccccc1` (configuration not stated) had an IC50 on Histone deacetylase 7 of 1.1 µM.
As for `Cc1ccc(C(=O)NO)c(-c2ccccc2)c1`, the IC50 on Histone deacetylase 1 is over 100 µM.
As to `O=C(NO)c1ccc(CN2C(=O)CCC2=O)cc1-c1ccccc1`, the IC50 at Histone deacetylase 1 is over 100 µM.
For the compound `O=C(NCc1ccc(C(=O)NO)c(-c2ccccc2)c1)c1ccccc1F`, the IC50 on Histone deacetylase 1 is 39 µM.
In the case of `O=C(NO)[C@@H](CCCCN1C(=O)c2ccccc2C1=O)c1ccccc1`, the IC50 on Histone deacetylase 1 came out at 19 µM.
Turning to `O=C(NO)c1ccc(CN2C(=O)c3ccccc3S2(=O)=O)cc1-c1ccccc1`, the outcome in the series with Macrophage [1], in the series on Macrophage [2], with Macrophage [4], with Macrophage [6] and in the series on Macrophage [11] was Active. Besides, in series [3], the solubility entry is on record as “Soluble”. Also, the IC50 is 5.3 µM in series [5]; over 30 µM in [8]; 0.049 µM at Histone deacetylase 4; 0.038 µM at Histone deacetylase 9; 0.3 µM in series [10]; 0.071 µM on Histone deacetylase 8. For the same compound, the half-life at 5 µM in series [7] was 3.83 h. Also, in series [9], the inhibition result was “inactive”. Moreover, the result with Macrophage [12] was inactive.
Regarding `O=C(NO)C(CCCCN1C(=O)c2ccccc2C1=O)c1ccccc1` (configuration not stated), the half-life at 5 µM in series [7] was 0.533 h. Further, the IC50 at Histone deacetylase 1 was determined as 26 µM.
`O=C(NCCCCC(C(=O)NO)c1ccccc1)c1ccccc1O` (configuration not stated): the results for the IC50 on Histone deacetylase 7 and at Histone deacetylase 1 were 1.9 µM and over 10 µM, respectively.
Turning to `CC(C)[C@H](C(=O)Nc1ccc(C(=O)NO)cc1)c1ccccc1`, the inhibition result in series [9] was “Active”.
`O=C(NO)C(OCCCN1C(=O)c2ccccc2C1=O)c1cccc(Cl)c1` (configuration not stated): the IC50 at Histone deacetylase 7 amounted to 1.1 µM.
In the case of `O=C(O)c1ccccc1C(=O)NCc1ccc(C(=O)NO)c(-c2ccccc2)c1`, the IC50 at Histone deacetylase 1 was over 100 µM.
On to `O=C(NO)c1ccc(CN2C(=O)c3ccccc3C2=O)cc1-c1ccccc1`, for which the solubility entry in [3] was “Insoluble”. Further, the IC50 is 6.4 µM in series [5]; over 30 µM in series [8]; 0.02 µM on Histone deacetylase 9; 0.3 µM in series [10]; 0.072 µM at Histone deacetylase 8. Moreover, the half-life at 5 µM in series [7] was found to be 0.917 h.
`COc1ccc(CC(=O)NCCCCC(C(=O)NO)c2ccccc2)cc1` (configuration not stated): the IC50 was 1.7 µM against Histone deacetylase 7 and 10 µM at Histone deacetylase 1.
In the case of `O=C(NO)c1ccc(CN2C(=O)c3ccncc3C2=O)cc1-c1ccccc1`, on Histone deacetylase 1, the IC50 was over 100 µM.
On to `O=C(NO)c1ccc(CN2C(=O)c3cccc(F)c3C2=O)cc1-c1ccccc1`, for which the solubility result in [3] is recorded as “Insoluble”. For the same compound, the IC50 in series [5] is 4.2 µM; in [8] it was over 30 µM; on Histone deacetylase 9, 0.046 µM; in series [10] it was 0.3 µM; at Histone deacetylase 8 it was 0.088 µM. In addition, the half-life at 5 µM in series [7] is 8.08 h.
Regarding `O=C(NO)[C@H](CCCCN1C(=O)c2ccccc2C1=O)c1ccccc1`, the IC50 on Histone deacetylase 1 stood at 20 µM.
Take `O=C(NO)c1ccc(CN2C(=O)c3ccccc3C2=O)cc1`: the IC50 on Histone deacetylase 1 worked out at 0.17 µM.
In the case of `O=C(NO)c1ccc(CN2Cc3ccccc3C2=O)cc1-c1ccccc1`, in series [7], the half-life at 5 µM amounted to 2.82 h. For the same compound, the IC50 on Histone deacetylase 1 came to 10 µM.
In the case of `O=C(CCCCCCC(=O)Nc1ccccc1)NO` [VORINOSTAT], the half-life at 5 µM in series [7] came to 3.3 h.

For orientation: IC50 means the point on the concentration scale where inhibition reaches its midpoint. For orientation: half-life means the time needed for the level to fall by half in the phase considered.
